The text below walks through data of ChEMBL document CHEMBL4020759, “Sulfoximines as ATR inhibitors: Analogs of VE-821” (2017).

Calls of active or inactive are those of the source. The rule behind the calls is not given here.

For experiment [1], the target named is Serine-protein kinase ATM (Homo sapiens) (UniProt Q13315). Kind of experiment: Inhibition of ATM in human U2OS cells assessed as reduction in etoposide-induced Chk-2 phosphorylation at Thr68 residue at 10 uM preincubated for 1 hr followed by etoposide challenge measured after 20 mins by Western blot analysis. Type of experiment: cell-based. On the technique in general: A western blot detects proteins with antibodies after separation by electrophoresis.
Chain of Serine-protein kinase ATM (Homo sapiens) (Q13315 whole entry): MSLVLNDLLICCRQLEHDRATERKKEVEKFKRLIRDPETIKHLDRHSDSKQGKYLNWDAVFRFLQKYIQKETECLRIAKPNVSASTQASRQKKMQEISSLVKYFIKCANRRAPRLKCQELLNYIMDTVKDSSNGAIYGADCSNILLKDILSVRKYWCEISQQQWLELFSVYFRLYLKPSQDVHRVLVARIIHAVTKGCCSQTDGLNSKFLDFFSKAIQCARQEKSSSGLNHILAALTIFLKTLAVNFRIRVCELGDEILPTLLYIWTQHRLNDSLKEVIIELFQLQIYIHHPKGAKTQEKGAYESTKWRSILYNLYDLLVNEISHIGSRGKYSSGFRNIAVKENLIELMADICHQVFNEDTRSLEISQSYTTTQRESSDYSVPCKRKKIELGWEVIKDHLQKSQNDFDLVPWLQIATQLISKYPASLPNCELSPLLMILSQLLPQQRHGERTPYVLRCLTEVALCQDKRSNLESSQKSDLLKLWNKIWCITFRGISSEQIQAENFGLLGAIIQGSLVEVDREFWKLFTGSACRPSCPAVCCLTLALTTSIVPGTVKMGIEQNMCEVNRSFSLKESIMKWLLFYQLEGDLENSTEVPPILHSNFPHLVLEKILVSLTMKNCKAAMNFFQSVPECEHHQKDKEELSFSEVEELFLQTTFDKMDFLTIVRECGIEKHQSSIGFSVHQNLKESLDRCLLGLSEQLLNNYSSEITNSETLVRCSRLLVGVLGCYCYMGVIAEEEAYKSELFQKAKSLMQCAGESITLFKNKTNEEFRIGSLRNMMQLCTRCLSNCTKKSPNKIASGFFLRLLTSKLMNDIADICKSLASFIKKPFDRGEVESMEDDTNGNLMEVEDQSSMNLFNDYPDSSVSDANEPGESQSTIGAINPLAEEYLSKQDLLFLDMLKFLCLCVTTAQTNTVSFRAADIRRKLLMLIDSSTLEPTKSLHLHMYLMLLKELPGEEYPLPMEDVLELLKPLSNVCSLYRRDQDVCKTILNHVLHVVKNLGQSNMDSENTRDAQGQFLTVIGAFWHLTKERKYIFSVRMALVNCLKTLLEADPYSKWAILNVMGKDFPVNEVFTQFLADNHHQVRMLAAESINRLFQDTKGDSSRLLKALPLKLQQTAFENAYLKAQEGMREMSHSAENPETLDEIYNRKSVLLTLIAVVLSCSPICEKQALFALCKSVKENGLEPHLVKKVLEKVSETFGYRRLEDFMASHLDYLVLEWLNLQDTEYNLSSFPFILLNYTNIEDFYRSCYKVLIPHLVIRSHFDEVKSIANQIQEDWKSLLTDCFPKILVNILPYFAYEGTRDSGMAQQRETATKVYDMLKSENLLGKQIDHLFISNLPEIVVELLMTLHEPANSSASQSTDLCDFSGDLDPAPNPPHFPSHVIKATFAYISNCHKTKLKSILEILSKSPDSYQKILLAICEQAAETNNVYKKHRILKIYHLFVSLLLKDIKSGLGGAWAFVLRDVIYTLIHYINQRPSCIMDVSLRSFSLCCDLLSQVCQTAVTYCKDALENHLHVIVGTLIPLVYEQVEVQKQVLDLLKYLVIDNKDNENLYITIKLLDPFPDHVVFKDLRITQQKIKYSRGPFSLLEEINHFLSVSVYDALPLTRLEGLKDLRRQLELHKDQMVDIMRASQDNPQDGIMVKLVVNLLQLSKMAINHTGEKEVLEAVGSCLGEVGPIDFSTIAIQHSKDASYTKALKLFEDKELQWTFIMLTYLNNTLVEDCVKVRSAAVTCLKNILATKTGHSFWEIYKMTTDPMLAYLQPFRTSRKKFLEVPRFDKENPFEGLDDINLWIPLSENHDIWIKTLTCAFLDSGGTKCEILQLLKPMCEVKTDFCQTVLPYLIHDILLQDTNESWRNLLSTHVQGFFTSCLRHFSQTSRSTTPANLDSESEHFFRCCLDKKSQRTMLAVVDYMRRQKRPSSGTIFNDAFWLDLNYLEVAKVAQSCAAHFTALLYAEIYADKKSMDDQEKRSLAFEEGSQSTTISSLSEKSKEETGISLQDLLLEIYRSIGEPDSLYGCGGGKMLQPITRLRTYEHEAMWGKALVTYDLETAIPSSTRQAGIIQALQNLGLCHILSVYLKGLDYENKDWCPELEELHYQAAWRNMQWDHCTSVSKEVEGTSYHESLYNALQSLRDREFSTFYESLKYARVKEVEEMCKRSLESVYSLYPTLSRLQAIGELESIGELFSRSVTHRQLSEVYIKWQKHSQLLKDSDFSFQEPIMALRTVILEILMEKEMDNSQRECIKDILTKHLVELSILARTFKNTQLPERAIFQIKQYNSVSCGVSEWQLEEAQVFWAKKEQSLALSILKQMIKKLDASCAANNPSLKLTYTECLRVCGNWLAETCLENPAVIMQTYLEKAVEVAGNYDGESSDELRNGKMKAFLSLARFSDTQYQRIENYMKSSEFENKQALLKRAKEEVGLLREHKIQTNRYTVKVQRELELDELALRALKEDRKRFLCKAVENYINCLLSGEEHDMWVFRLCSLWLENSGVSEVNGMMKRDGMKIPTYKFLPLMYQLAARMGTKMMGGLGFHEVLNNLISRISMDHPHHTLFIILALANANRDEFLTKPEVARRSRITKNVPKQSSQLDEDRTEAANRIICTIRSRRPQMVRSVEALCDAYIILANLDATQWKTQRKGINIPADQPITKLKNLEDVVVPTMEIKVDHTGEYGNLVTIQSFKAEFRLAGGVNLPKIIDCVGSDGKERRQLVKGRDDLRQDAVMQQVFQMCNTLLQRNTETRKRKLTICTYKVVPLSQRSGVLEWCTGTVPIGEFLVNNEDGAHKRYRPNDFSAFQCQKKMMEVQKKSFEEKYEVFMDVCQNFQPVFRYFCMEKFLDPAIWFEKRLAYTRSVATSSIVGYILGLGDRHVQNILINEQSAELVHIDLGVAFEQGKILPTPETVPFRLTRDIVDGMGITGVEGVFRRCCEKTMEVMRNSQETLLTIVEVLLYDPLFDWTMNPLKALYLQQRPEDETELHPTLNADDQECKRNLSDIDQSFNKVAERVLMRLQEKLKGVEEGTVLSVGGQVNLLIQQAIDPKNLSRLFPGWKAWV

The subject of experiment [2] is EKVX. Kind of experiment: Growth inhibition of human EKVX cells assessed as cell growth at 10 uM incubated for 48 hrs by sulforhodamine B assay. To be noted: read-out: Activity. Type of experiment: functional. A general note: The SRB assay estimates cell density from bound dye.
For experiment [3], the system named is MCF7. Kind of experiment: Growth inhibition of human MCF7 cells assessed as cell growth at 10 uM incubated for 48 hrs by sulforhodamine B assay. Type of experiment: functional. The note with it: MCF7, 48 h, read-out: Activity.

In the case of `CS(=O)(=NC#N)c1ccc(-c2cnc(N)c(C(=O)Nc3ccccc3)n2)cc1` (stereo unspecified), the inhibition entry in experiment [1] is “inactive”. Besides, the results for the growth at 10 µM in experiment [2] and in experiment [3] were 88.1% and 45.5%, respectively.
Taken in the same sequence, the figures for `C/S(=N\C#N)c1ccc(-c2cnc(N)c(C(=O)Nc3ccccc3)n2)cc1` (stereo unspecified) were “inactive”, 107% and 75.7%.
